From US20250163006A1, “New Coolants, and Preparations Containing Same” (Symrise AG, priority 2022, published 2025)

Biological target: T1, human TRPM8 receptor (Homo sapiens, UniProt Q7Z2W7)
T1 construct: expressed in transfected cells; host or cells: HEK293, stably transfected, tetracycline-inducible expression
Assay: Assay on TRPM8 modulators: Ca2+-sensitive dye (Fluo-4) fluorescence in HEK293-TRPM8 test cells
Format: cell-based
Set-up: relative TRPM8 activation: concentration or dose not given beside the values
Conditions: for relative TRPM8 activation: HEK293 cells recombinantly expressing human TRPM8
Source text: The starting point for cloning the human TRPM8 receptor is an LnCaP cDNA bank. This is commercially available (e.g. BioChain, Hayward, USA) or can be produced from the andro gene-sensitive human prostate adenocarcinoma cell line LnCaP (e.g. ATCC, CRL1740 or ECACC, 891 1021 1) using standard kits.
The coding TRPM8 sequence (see e.g. http://www. ncbi.nlm.nih.gov/entrez/viewer.fcgi?db=nuccore&id=109689694) can be PCR-amplified and cloned using standard methods. The human TRPM8 gene isolated in this way was used to produce the plasmid plnd_M8. Alternatively, the TRPM8 gene can also be produced synthetically.
A stably transfected HEK293 cell line was produced as a test cell system using human TRPM8 DNA. Preference was given to HEK293, which offers the possibility of inducing TRPM8 expression using tetracycline via the plasmid introduced.
A test similar to the test already described in the literature by Behrendt H. J. et al, Br. J. Pharmacol. 141, 2004, 737-745, is performed. The agonization or antagonization of the receptor can be quantified using a Ca^2+-sensitive dye (e.g. FURA, Fluo-4 etc.). Agonists alone cause an increase in the Ca^2+ signal; antagonists cause a reduction in the Ca^2+ signal in the presence of e.g. menthol (detected in each case using the Fluo-4 dye, which has different fluorescence properties due to Ca^2+ ions).
First, a fresh culture of transformed HEK cells is prepared in cell culture flasks in the usual way. The HEK293-TRPM8 test cells are detached from the cell culture flasks using trypsin and 40,000 cells/well are seeded with 100 μl medium in 96-well plates (Greiner #655948 poly-D-lysine-coated). To induce the TRPM8 receptor, tetracycline is added to the growth medium (DMEM/HG, 10% FCS tetracycline-free, 4 mM L-glutamine, 15 μg/ml blasticidin, 100 μg/ml hygromycin B, 1 μg/ml tetracycline).
On the following day, the cells are loaded with Fluo-4AM dye and the test is performed. Proceed as follows: Addition of 100 μl/well staining solution Ca-4 kit (RB 141, Molecular Devices) to each 100 μl medium (DMEM/HG, 10% FCS tetracycline-free, 4 mM L-glutamine, 15 μg/ml blasticidin, 100 μg/ml hygromycin B, 1 μg/ml tetracycline).
Incubation in incubator, 30 minutes/37° C./5% CO2, 30 minutes/RT.
Preparation of the test substances (different concentrations in 200 μl HBSS buffer), as well as positive controls (different concentrations of menthol, icilin or lonomycin in 200 μl HBSS buffer) and negative controls (only 200 μl HBSS buffer) Addition of the test substances in quantities of 50 μl/well and measurement of the fluorescence change (e.g. in the assay device FLIPR, Molecular Devices or NovoStar, BMG) at 485 nm excitation, 520 nm emission, and evaluation of the potency of the different substances/concentrations and determination of the ECG. e.g. in the FLIPR assay device, Molecular Devices or NovoStar, BMG) at 485 nm excitation, 520 nm emission, and evaluation of the potency of the various substances/concentrations and determination of the EC50 values.
The test substances are used in triplicates in concentrations of 0.1-200 μM in the assay. Normally, the compounds are kept ready in DMSO solutions and diluted down to a maximum DMSO concentration of 2% for the assay.
The activity of the active substances in relation to activation of the TRPM8 channel is determined using the assay described. This is done in a concentration-dependent manner. For each active substance, 6 to 10 concentrations are measured as standard. A mathematical method (4-parameter or 5-parameter logistic curve fitting) can be used to determine the EC50 value as the inflection point of the sigmoidal curve from the activity values determined. These are standard biochemical methods that are familiar to experts.

T1 sequence (Q7Z2W7 whole entry): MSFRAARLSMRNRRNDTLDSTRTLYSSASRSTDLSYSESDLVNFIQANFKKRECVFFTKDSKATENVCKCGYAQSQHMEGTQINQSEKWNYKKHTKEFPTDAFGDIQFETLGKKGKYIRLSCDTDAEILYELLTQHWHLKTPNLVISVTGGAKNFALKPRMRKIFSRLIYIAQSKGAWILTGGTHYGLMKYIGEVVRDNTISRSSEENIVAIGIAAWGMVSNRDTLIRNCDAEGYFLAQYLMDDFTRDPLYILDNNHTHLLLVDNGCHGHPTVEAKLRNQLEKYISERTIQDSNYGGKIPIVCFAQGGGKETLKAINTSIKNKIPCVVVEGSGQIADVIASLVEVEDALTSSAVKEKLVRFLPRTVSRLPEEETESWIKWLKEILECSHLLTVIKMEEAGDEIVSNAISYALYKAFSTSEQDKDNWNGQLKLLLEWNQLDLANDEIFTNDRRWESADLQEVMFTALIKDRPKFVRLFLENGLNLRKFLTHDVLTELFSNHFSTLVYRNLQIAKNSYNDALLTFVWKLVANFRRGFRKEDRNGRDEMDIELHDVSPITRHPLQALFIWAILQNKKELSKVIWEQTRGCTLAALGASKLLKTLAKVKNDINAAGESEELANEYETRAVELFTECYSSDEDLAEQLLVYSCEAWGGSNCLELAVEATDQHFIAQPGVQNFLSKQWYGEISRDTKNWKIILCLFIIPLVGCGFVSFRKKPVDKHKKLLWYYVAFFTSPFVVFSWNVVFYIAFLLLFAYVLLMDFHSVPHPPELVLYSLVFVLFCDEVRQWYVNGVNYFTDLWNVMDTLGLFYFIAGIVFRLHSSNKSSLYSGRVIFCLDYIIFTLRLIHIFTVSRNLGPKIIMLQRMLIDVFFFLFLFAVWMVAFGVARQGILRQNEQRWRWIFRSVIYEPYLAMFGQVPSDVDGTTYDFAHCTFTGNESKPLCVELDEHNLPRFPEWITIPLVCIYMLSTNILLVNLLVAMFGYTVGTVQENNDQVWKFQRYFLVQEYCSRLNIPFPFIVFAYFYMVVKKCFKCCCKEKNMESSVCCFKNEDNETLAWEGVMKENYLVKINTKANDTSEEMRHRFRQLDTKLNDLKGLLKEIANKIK

Structure (SMILES)	relative TRPM8 activation [%]	EC50 (TRPM8 activation, HEK293-TRPM8 cells, 6 to 10 concentrations, logistic curve fitting, read-out: EC50 value) [µM]
COCCSc1nnc(-c2ccccc2)c(-c2ccccc2)n1 [Compound B-30, 3-(2-methoxyethyl-sulfanyl)-5,6-diphenyl-1,2,4-triazine]	41	–
CCCCSc1nnc(-c2ccccc2)c(-c2ccccc2)n1 [Compound B-31, 3-butylsulfanyl-5,6-diphenyl-1,2,4-triazine]	40	–
CC(Sc1nnc(-c2ccccc2)c(-c2ccccc2)n1)C(=O)NCC1CCCO1 (centres unmarked) [Compound B-32, 2-[(5,6-diphenyl-1,2,4-triazin-3-yl)sulfanyl]-N-(tetrahydrofuran-2-ylmethyl)propanamide]	37	–
CCC(=O)CSc1nnc(-c2ccccc2)c(-c2ccccc2)n1 [Compound B-33, 1-[(5,6-diphenyl-1,2,4-triazin-3-yl)sulfanyl]butan-2-one]	25	–
CNC(=O)C(C)Sc1nncc(-c2ccccc2)n1 (centres unmarked) [Compound B-34, N-methyl-2-[(5-phenyl-1,2,4-triazin-3-yl)sulfanyl]propanamide]	25	–
CN(C)CCSc1nnc(-c2ccccc2)c(-c2ccccc2)n1 [Compound B-36, 2-[(5,6-diphenyl-1,2,4-triazin-3-yl)sulfanyl]-N,N-dimethyl-ethanamine]	20	–
CCSc1nnc(-c2ccccc2)c(-c2ccccc2)n1 [Compound B-37, 3-ethylsulfanyl-5,6-diphenyl-1,2,4-triazine]	13	–
Cc1ccc(-c2nnc(SC(C)C(=O)N3CCCC3)nc2-c2ccc(C)cc2)cc1 (centres unmarked) [Compound B-38, 2-[[5,6-bis(p-tolyl)-1,2,4-triazin-3-yl]sulfanyl]-1-pyrrolidin-1-yl-propan-1-one]	11	–
CC(Sc1nnc(-c2ccccc2)c(-c2ccccc2)n1)C(=O)N(C)C1CCCCC1 (centres unmarked) [Compound B-39, N-cyclohexyl-2-[(5,6-diphenyl-1,2,4-triazin-3-yl)sulfanyl]-N-methyl-propanamide]	11	–
CNC(=O)C(C)Sc1nnc(-c2ccc(OC)cc2)c(-c2ccc(OC)cc2)n1 (centres unmarked) [Compound B-40, 2-[[5,6-bis(4-methoxyphenyl)-1,2,4-triazin-3-yl]sulfanyl]-N-methyl-propanamide]	9	–
COC(=O)Nc1nnc(-c2ccccc2)c(-c2ccccc2)n1 [Compound B-41, methyl N-(5,6-diphenyl-1,2,4-triazin-3-yl)carbamate]	8	–
CN(C)CCOc1nnc(-c2ccccc2)c(-c2ccccc2)n1 [Compound B-42, 2-[(5,6-diphenyl-1,2,4-triazin-3-yl)oxy]-N,N-dimethyl-ethanamine]	8	–
CNC(=O)CNc1nnc(-c2ccccc2)c(-c2ccccc2)n1 [Compound B-43, 2-[(5,6-diphenyl-1,2,4-triazin-3-yl)amino]-N-methyl-acetamide]	6	–
CC(Sc1nnc(-c2ccccc2)c(-c2ccccc2)n1)C(=O)O (centres unmarked) [Compound B-44, 2-[(5,6-diphenyl-1,2,4-triazin-3-yl)sulfanyl]propanoic acid]	5	–
CNC(=O)C(C)Sc1nnc(-c2ccc(O)cc2)c(-c2ccc(O)cc2)n1 (centres unmarked) [Compound B-45, 2-[[5,6-bis(4-hydroxyphenyl)-1,2,4-triazin-3-yl]sulfanyl]-N-methyl-propanamide]	5	–
OCCSc1nnc(-c2ccccc2)c(-c2ccccc2)n1 [Compound B-46, 2-[(5,6-diphenyl-1,2,4-triazin-3-yl)sulfanyl]ethanol]	5	–
CCC(=O)Nc1nnc(-c2ccccc2)c(-c2ccccc2)n1 [Compound B-47, N-(5,6-diphenyl-1,2,4-triazin-3-yl)propanamide]	4	–
CC(Sc1nnc(-c2ccccc2)c(-c2ccccc2)n1)C(=O)NCc1cccs1 (centres unmarked) [Compound B-48, 2-[(5,6-diphenyl-1,2,4-triazin-3-yl)sulfanyl]-N-(2-thienylmethyl) propanamide]	4	–

Structure (SMILES)	relative TRPM8 activation [%]	EC50 (TRPM8 activation, HEK293-TRPM8 cells, 6 to 10 concentrations, logistic curve fitting, read-out: EC50 value) [µM]
c1ccc(CSc2nnc(-c3ccccc3)c(-c3ccccc3)n2)cc1 [Compound B-49, 3-benzylsulfanyl-5,6-diphenyl-1,2,4-triazine]	3	–
c1ccc(-c2nnc(NCCC3CC3)nc2-c2ccccc2)cc1 [Compound B-50, N-(2-cyclopropylethyl)-5,6-diphenyl-1,2,4-triazin-3-amine]	3	–
c1ccc(-c2nnc(NC3COC3)nc2-c2ccccc2)cc1 [Compound B-51, N-(oxetan-3-yl)-5,6-diphenyl-1,2,4-triazin-3-amine]	3	–
CNC(=O)COc1nnc(-c2ccccc2)c(-c2ccccc2)n1 [Compound B-52, 2-[(5,6-diphenyl-1,2,4-triazin-3-yl)oxy]-N-methyl-acetamide]	3	–
O=C(COc1nnc(-c2ccccc2)c(-c2ccccc2)n1)NC1CC1 [Compound B-53, N-cyclopropyl-2-[(5,6-diphenyl-1,2,4-triazin-3-yl)oxy]acetamide]	2	–
OCC(O)CNc1nnc(-c2ccccc2)c(-c2ccccc2)n1 (centres unmarked) [Compound B-54, 3-[(5,6-diphenyl-1,2,4-triazin-3-yl)amino]propane-1,2-diol]	2	–
COCCNc1nnc(-c2ccccc2)c(-c2ccccc2)n1 [Compound B-55, N-(2-methoxyethyl)-5,6-diphenyl-1,2,4-triazin-3-amine]	2	–
NC(=O)Nc1nnc(-c2ccccc2)c(-c2ccccc2)n1 [Compound B-56, (5,6-diphenyl-1,2,4-triazin-3-yl)urea]	2	–
CNC(=O)C(C)Oc1nnc(-c2ccccc2)c(-c2ccccc2)n1 (centres unmarked) [Compound B-57, 2-[(5,6-diphenyl-1,2,4-triazin-3-yl)oxy]-N-methyl-propanamide]	2	–
OCCNc1nnc(-c2ccccc2)c(-c2ccccc2)n1 [Compound B-58, 2-[(5,6-diphenyl-1,2,4-triazin-3-yl)amino]ethanol]	1	–
CNC(=O)C(C)Sc1cnccn1 (centres unmarked) [Compound B-59, N-methyl-2-pyrazine-2-ylsulfanyl-propanamide]	1	–
CNC(=O)C(C)Sc1nnc(C)c(C)n1 (centres unmarked) [Compound B-60, 2-[(5,6-dimethyl-1,2,4-triazin-3-yl)sulfanyl]-N-methyl-propanamide]	1	–
CCC(Sc1nnc(-c2ccc(OC)c(OC)c2)c(-c2ccc(OC)c(OC)c2)n1)C(=O)NC1CCCC1 (centres unmarked) [Compound B-61, 2-[[5,6-bis(3,4-dimethoxyphenyl)-1,2,4-triazin-3-yl]sulfanyl]-N-cyclopentyl-butanamide]	1	–
Cc1ccc(-c2nnc(SCC(=O)NC3CC3)nc2-c2ccc(C)cc2)cc1 [Compound B-62, 2-[[5,6-bis(p-tolyl)-1,2,4-triazin-3-yl]sulfanyl]-N-cyclopropyl-acetamide]	0	–
COC(=O)C(C)Nc1nnc(-c2ccccc2)c(-c2ccccc2)n1 (centres unmarked) [Compound B-63, methyl 2-[(5,6-diphenyl-1,2,4-triazin-3-yl)amino]propanoate]	−2	–
CSc1nnc(-c2ccccc2)c(-c2ccccc2)n1 [Compound B-64, 3-methylsulfanyl-5,6-diphenyl-1,2,4-triazine]	−3	–
CCNC(=O)C1CC(C)CCC1C(C)C [WS-3, L-menthanecarboxylic acid N-ethylamide, reference compound]	–	1.72
